{"source": "patent US20150203474A1", "about": "“SOLID FORMS COMPRISING INHIBITORS OF HCV NS5A, COMPOSITIONS THEREOF, AND USES THEREWITH” (PRESIDIO PHARMACEUTICALS ,INC., priority 2012, published 2015)", "key": {"[1]": {"test": "Stressing of Form A at ~40° C./~75% RH", "type": "physicochemical", "experimental": "Form A samples were stressed at ˜40° C./˜75% relative humidity (RH) for 25-27 days. The samples were added to glass vials and then placed uncapped in jars containing saturated salt solutions. The jars were sealed and placed in an oven. […] XRPD patterns for this sample were collected with a PANalytical X'Pert PRO MPD diffractometer using an incident beam of Cu Kα radiation produced using a long, fine-focus source and a nickel filter. The diffractometer was configured using the symmetric Bragg-Brentano. Prior to the analysis, a silicon specimen (NIST SRM 640d) was analyzed to verify the Si 111 peak position. A specimen of the sample was packing into a nickel-coated copper well. Antiscatter slits (SS) were used to minimize the background generated by air. Soller slits for the incident and diffracted beams were used to minimize broadening from axial divergence. Diffraction patterns were collected using a scanning position-sensitive detector (X'Celerator) located 240 mm from the sample and Data Collector software v. 2.2b. […] TG′analysis was performed using a TA Instruments Q5000 IR and 2950 thermogravimetric analyzers. Temperature calibration was performed using nickel and Alumel™. Each sample was placed in an aluminum pan. Samples ran on TA Instruments 2950 were left uncapped and samples ran on Q5000 was hermetically sealed, the lid pierced, then inserted into the TG furnace. The furnace was heated under nitrogen. The sample was heated from 0° C. to 350° C., at 10° C./min."}, "[2]": {"test": "PK study of Form A of Compound I in dogs", "type": "in vivo", "details": "PO dose of 75 mg/kg", "experimental": "The pharmacokinetics (PK) properties of Form A of Compound I and Form I of Compound II were determined in a series of comprehensive experiments in preclinical species including Sprague-Dawley rats, beagle dogs, cynomolgus monkeys. In those studies, the Form A crystalline salt of Compound I (and Form I crystalline salt of Compound II) was formulated in saline, 0.5% MC in saline or other commonly used suitable formulation vehicles to give a clear solution or as a suspension or a paste depending on the concentration intended to reach and the choice of vehicles. Dosing was by oral gavage. Blood samples were drawn and placed into individual tube containing K2EDTA. Blood samples were put on ice and centrifuged (2000 g for 5 minutes at 4° C.) to obtain plasma within 15 minutes after collection. Plasma samples were stored at approximately −80° C. freezer until analysis. For most of these analyses, Compound I (and Compound II) and the internal standard (IS) were extracted from rat, monkey or dog plasma by protein precipitation, and the extract was evaporated, reconstituted and analyzed using HPLC with tandem mass spectrometric detection (HPLC-MS/MS), see examples for further details. Calibration was accomplished by weighted linear regression of the ratio of the peak area of analyte to that of the added internal standard (IS). For the validated assay in rat and monkey EDTA plasma, the Lower Limit of Quantitation (LLOQ) for both compound 1 and 2 was 5.00 ng/mL, and the assay was linear from 5.00-1,000 ng/mL. PK parameters were calculated by non-compartmental analysis using WinNonlin (versions 4.1 through 6.1). Non-naïve Beagle Dog, 8.0-9.5 kg were used in the study. The dosing solution was prepared by dissolving 1.90 g of Form A of Compound I (1.67 g free base equivalent) in 222.237 mL of 0.5% MC and vortexed for 20 min, sonicated for 2 min to obtain a colorless clear solution. The animals were restrained manually, and approx. 0.6-1 mL blood/time point was collected from cephalic or saphenous veins into pre-cooled EDTA tubes. Blood samples were put on ice and centrifuged at 4° C. to obtain plasma within 30 minutes of sample collection. […] 5 μL of the supernatant was injected for LC-MS/MS analysis. • For dilution samples: • An aliquot of 10 μL plasma sample was added with 90 μL blank Beagle dog plasma. The dilution factor was 10. An aliquot of 30 μL dilution plasma was added with 200 μL IS in ACN (testosterone as IS, 100.0 ng/mL), the mixture was vortexed for 2 min and centrifuged at 12000 rpm for 5 min. 5 μL of the supernatant was injected for LC-MS/MS analysis."}, "[3]": {"test": "Solubility of Form A (aliquot addition / slurry, visual)", "type": "physicochemical", "experimental": "Aliquots of various solvents were added to measured amounts of Form A with agitation (typically sonication) at ambient or elevated temperatures until completedissolution was achieved, as judged by visual observation. […] Samples were left to slurry at ambient and elevated temperatures for several days; however, no further dissolution was observed."}, "[4]": {"details": "beagle, dog, plasma, po, 75 mg/kg, Dog #1, read-out: plasma concentration"}, "[5]": {"details": "beagle, dog, plasma, po, 75 mg/kg, Dog #2, read-out: plasma concentration"}, "[6]": {"details": "beagle, dog, plasma, po, 75 mg/kg, Mean, read-out: mean plasma concentration"}}, "note": "Like-named read-outs stand apart in the source and are kept apart here.", "data": [{"smiles": "COC(=O)N[C@H](C(=O)N1CCC[C@H]1c1ncc(-c2ccc3cc(-c4ccc5nc([C@@H]6CCCN6C(=O)[C@@H](NC(=O)OC)C(C)C)[nH]c5c4)ccc3c2)[nH]1)C(C)C", "note": "[Form A of Compound I]", "values": [{"measurement": "Hygroscopicity (in words)", "setting": "[1]; stressed ~40° C./~75% RH 27 days vs unstressed material", "value": "hygroscopic at high RH"}, {"measurement": "Thermogravimetric weight loss after stressing", "setting": "[1]; ~40° C./~75% RH, after 27 days, from 25-225° C., equivalent to 5 moles of water", "value": "~10", "unit": "%"}, {"measurement": "Solid form by XRPD after stressing", "setting": "[1]; ~40° C./~75% relative humidity, uncapped, after 25 days", "value": "remained Form A"}, {"measurement": "plasma concentration", "setting": "[2]; Beagle Dog, 0.083 hr, Dog #1", "value": "BQL"}, {"measurement": "concentration at 0.083 hr", "setting": "[2]; beagle, dog, plasma, po, 75 mg/kg, 0.083 hr, Dog #2, read-out: plasma concentration", "value": 5.92, "unit": "ng/mL"}, {"measurement": "concentration at 0.083 hr", "setting": "[2]; beagle, dog, plasma, po, 75 mg/kg, 0.083 hr, Mean, read-out: mean plasma concentration", "value": 5.92, "unit": "ng/mL"}, {"measurement": "concentration at 0.25 h", "setting": "[2]; [4]", "value": 267, "unit": "ng/mL"}, {"measurement": "concentration at 0.25 h", "setting": "[2]; [5]", "value": 374, "unit": "ng/mL"}, {"measurement": "concentration at 0.25 h", "setting": "[2]; [6]", "value": 320, "unit": "ng/mL"}, {"measurement": "concentration at 0.5 h", "setting": "[2]; beagle, dog, plasma, po, 75 mg/kg, 0.5 hr, Dog #1", "value": 1090, "unit": "ng/mL"}, {"measurement": "concentration at 0.5 hr", "setting": "[2]; beagle, dog, plasma, po, 75 mg/kg, 0.5 hr, Dog #2, read-out: plasma concentration", "value": 952, "unit": "ng/mL"}, {"measurement": "concentration at 0.5 hr", "setting": "[2]; beagle, dog, plasma, po, 75 mg/kg, 0.5 hr, Mean, read-out: mean plasma concentration", "value": 1020, "unit": "ng/mL"}, {"measurement": "concentration at 1 hr", "setting": "[2]; [4]", "value": 1590, "unit": "ng/mL"}, {"measurement": "concentration at 1 hr", "setting": "[2]; [5]", "value": 2050, "unit": "ng/mL"}, {"measurement": "concentration at 1 hr", "setting": "[2]; [6]", "value": 1820, "unit": "ng/mL"}, {"measurement": "concentration at 2 hr", "setting": "[2]; [4]", "value": 2980, "unit": "ng/mL"}, {"measurement": "concentration at 2 hr", "setting": "[2]; [5]", "value": 2400, "unit": "ng/mL"}, {"measurement": "concentration at 2 hr", "setting": "[2]; [6]", "value": 2690, "unit": "ng/mL"}, {"measurement": "concentration at 4 hr", "setting": "[2]; [4]", "value": 3080, "unit": "ng/mL"}, {"measurement": "concentration at 4 hr", "setting": "[2]; [5]", "value": 1540, "unit": "ng/mL"}, {"measurement": "concentration at 4 hr", "setting": "[2]; [6]", "value": 2310, "unit": "ng/mL"}, {"measurement": "concentration at 6 hr", "setting": "[2]; [4]", "value": 3590, "unit": "ng/mL"}, {"measurement": "concentration at 6 hr", "setting": "[2]; [5]", "value": 1320, "unit": "ng/mL"}, {"measurement": "concentration at 6 hr", "setting": "[2]; [6]", "value": 2450, "unit": "ng/mL"}, {"measurement": "concentration at 8 hr", "setting": "[2]; [4]", "value": 3500, "unit": "ng/mL"}, {"measurement": "concentration at 8 hr", "setting": "[2]; [5]", "value": 1040, "unit": "ng/mL"}, {"measurement": "concentration at 8 hr", "setting": "[2]; [6]", "value": 2270, "unit": "ng/mL"}, {"measurement": "concentration at 24 hr", "setting": "[2]; [4]", "value": 244, "unit": "ng/mL"}, {"measurement": "concentration at 24 hr", "setting": "[2]; [5]", "value": 2160, "unit": "ng/mL"}, {"measurement": "concentration at 24 hr", "setting": "[2]; [6]", "value": 1200, "unit": "ng/mL"}, {"measurement": "Solubility estimate (in words)", "setting": "[3]; IPA and IPA/MTBE (2/1 (v/v)) mixtures at ambient and elevated temperatures, aliquot addition", "value": "poorly soluble"}, {"measurement": "solubility", "setting": "[3]; IPA/water (95/5 v/v), organic solvent or mixture, thermodynamic from solid, IPA:H2O (95:5), RT, aliquot addition", "value": 33000, "unit": "µg/mL"}, {"measurement": "solubility", "setting": "[3]; organic solvent or mixture, thermodynamic from solid, IPA, RT, aliquot addition", "value": "< 3000", "unit": "µg/mL"}, {"measurement": "solubility at 4 days", "setting": "[3]; organic solvent or mixture, thermodynamic from solid, IPA, RT, slurry, 4 days", "value": "< 3000", "unit": "µg/mL"}, {"measurement": "solubility", "setting": "[3]; organic solvent or mixture, thermodynamic from solid, IPA, ~60° C., aliquot addition", "value": 2000, "unit": "µg/mL"}, {"measurement": "solubility at 6 days", "setting": "[3]; organic solvent or mixture, thermodynamic from solid, IPA, ~60° C., slurry, 6 days", "value": "< 6000", "unit": "µg/mL"}, {"measurement": "solubility", "setting": "[3]; organic solvent or mixture, thermodynamic from solid, IPA:tBME (2:1), RT, aliquot addition", "value": "< 2000", "unit": "µg/mL"}, {"measurement": "solubility at 3 days", "setting": "[3]; organic solvent or mixture, thermodynamic from solid, IPA:tBME (2:1), RT, slurry", "value": "< 2000", "unit": "µg/mL"}, {"measurement": "solubility", "setting": "[3]; organic solvent or mixture, thermodynamic from solid, IPA:tBME (2:1), ~60° C., aliquot addition", "value": "< 3000", "unit": "µg/mL"}, {"measurement": "solubility at 3 days", "setting": "[3]; organic solvent or mixture, thermodynamic from solid, IPA:tBME (2:1), ~60° C., slurry", "value": "< 3000", "unit": "µg/mL"}]}]}
